For five compounds, IC50, EC50 and AC50 results are on record in ChEMBL document CHEMBL1201862, “PubChem BioAssay data set” (2004).

The source made the active and inactive calls. Rule as the data show it, for most assays here: actives have a measured IC50 and inactives only a lower limit.

The target in test [1] is DNA dC->dU-editing enzyme APOBEC-3G (Homo sapiens, UniProt Q9HC16). Put plainly: Dose Response confirmation of small molecule APOBEC3G DNA Deaminase Inhibitors via a fluorescence-based single-stranded DNA deaminase assay. [Related pubchem assays (depositor defined):AID493012, AID493028]. It is filed as functional.
Sequence of DNA dC->dU-editing enzyme APOBEC-3G (Q9HC16 whole entry): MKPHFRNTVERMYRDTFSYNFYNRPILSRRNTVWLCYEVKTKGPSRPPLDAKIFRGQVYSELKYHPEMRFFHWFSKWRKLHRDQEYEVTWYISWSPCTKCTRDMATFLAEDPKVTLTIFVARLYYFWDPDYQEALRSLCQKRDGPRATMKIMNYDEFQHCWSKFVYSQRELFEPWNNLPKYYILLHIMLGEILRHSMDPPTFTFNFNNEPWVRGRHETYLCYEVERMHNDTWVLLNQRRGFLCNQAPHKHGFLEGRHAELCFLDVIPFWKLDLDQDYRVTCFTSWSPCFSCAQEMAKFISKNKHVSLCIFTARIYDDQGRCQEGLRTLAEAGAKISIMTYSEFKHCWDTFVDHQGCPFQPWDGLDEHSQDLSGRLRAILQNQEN
Test [2] deals with DNA dC->dU-editing enzyme APOBEC-3A (Homo sapiens, UniProt P31941). Put plainly: APOBEC3A DNA deaminase inhibitors, dose response, biochemical (AID 504722). It is filed as functional.
Sequence of DNA dC->dU-editing enzyme APOBEC-3A (P31941 whole entry, the tested form may be a part): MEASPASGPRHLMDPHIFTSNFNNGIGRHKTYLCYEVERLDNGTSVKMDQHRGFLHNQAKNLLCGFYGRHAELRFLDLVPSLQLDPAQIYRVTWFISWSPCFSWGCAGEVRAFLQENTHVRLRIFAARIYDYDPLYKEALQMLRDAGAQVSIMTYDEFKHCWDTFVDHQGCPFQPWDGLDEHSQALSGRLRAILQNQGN
Test [3] addresses T1, Nucleotide-binding oligomerization domain-containing protein 1 (Homo sapiens, UniProt Q9Y239).
T1 sequence (Q9Y239 whole entry): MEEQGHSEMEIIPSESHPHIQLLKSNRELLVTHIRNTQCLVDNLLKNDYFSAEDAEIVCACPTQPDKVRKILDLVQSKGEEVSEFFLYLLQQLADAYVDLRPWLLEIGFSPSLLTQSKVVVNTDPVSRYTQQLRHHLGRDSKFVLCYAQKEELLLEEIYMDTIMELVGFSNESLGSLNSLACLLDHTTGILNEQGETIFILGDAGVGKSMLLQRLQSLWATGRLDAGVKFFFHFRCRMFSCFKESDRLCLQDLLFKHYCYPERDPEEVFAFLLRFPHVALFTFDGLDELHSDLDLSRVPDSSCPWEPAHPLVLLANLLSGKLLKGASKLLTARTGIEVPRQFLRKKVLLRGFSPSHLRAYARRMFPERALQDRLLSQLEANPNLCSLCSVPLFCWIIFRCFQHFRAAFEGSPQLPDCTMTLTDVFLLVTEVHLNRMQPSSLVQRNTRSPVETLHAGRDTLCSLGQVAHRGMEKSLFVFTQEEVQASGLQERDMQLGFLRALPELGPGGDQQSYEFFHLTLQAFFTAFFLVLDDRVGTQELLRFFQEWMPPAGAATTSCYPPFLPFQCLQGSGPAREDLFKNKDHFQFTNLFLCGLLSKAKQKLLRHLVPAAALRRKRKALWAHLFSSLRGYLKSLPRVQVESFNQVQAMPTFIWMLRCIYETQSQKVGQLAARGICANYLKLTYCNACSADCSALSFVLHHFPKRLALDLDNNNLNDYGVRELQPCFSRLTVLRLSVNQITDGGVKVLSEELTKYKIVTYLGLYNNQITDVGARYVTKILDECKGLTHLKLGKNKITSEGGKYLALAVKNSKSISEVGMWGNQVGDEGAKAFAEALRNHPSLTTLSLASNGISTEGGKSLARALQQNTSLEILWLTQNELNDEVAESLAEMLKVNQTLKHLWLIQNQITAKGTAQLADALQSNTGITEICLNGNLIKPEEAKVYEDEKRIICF
Put plainly: NOD1 signaling inhibitors, SAR follow-up, revised (AID 2333). It is filed as functional.

Test [4] concerns the target Tumor necrosis factor (Homo sapiens, UniProt P01375). The test can be described thus: TNFa-triggered NF-kB activation inhibitors, SAR follow-up, cell-based, revised (AID 2337). It is filed as functional.
In test [5] the test system is HEK293. Put plainly: cells. Conditions: Homo sapiens.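 Also: cells exposed to compound for 14 hours overnight before viability readout.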
In test [6] the target is Nucleotide-binding oligomerization domain-containing protein 2 (Homo sapiens, UniProt Q9HC29). Put plainly: PubChem AID 2334. It is filed as functional.
Sequence of Nucleotide-binding oligomerization domain-containing protein 2 (Q9HC29 whole entry, the tested form may be a part): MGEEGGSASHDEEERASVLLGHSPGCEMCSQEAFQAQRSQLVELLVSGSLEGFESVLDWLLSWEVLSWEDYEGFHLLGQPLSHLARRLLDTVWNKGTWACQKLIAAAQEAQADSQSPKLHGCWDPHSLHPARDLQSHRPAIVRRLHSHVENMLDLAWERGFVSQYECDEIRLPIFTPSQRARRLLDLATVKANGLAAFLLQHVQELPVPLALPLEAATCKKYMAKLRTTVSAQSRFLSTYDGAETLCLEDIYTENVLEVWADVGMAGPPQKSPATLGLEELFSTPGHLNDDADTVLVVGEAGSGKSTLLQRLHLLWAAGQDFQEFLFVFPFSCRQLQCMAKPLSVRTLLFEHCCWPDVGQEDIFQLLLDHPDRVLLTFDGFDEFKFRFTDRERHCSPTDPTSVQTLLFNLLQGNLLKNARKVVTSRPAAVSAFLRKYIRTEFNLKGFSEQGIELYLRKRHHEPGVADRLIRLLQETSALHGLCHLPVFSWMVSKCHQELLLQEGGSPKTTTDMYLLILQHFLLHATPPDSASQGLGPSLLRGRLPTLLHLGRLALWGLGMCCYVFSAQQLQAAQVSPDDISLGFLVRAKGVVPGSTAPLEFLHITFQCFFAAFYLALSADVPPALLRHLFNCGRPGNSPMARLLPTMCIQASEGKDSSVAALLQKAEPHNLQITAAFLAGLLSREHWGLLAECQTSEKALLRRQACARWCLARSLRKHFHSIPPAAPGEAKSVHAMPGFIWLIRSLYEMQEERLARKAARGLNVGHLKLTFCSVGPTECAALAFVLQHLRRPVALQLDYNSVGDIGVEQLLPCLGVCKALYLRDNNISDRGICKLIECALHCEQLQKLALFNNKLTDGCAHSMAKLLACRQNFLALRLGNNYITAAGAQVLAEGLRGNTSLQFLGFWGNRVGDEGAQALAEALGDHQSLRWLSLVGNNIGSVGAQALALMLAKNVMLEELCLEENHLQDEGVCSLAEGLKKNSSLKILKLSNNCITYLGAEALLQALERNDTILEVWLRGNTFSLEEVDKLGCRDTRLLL
Test [7] deals with Wee1-like protein kinase (Homo sapiens, UniProt P30291). Put plainly: G2/M cell cycle arrest in HeLa, late-stage follow-up, mechanism study for Wee1 degradation inhibitor project, FACS, panel member Wee1 Degradation (AID 2088).
Sequence of Wee1-like protein kinase (P30291 whole entry): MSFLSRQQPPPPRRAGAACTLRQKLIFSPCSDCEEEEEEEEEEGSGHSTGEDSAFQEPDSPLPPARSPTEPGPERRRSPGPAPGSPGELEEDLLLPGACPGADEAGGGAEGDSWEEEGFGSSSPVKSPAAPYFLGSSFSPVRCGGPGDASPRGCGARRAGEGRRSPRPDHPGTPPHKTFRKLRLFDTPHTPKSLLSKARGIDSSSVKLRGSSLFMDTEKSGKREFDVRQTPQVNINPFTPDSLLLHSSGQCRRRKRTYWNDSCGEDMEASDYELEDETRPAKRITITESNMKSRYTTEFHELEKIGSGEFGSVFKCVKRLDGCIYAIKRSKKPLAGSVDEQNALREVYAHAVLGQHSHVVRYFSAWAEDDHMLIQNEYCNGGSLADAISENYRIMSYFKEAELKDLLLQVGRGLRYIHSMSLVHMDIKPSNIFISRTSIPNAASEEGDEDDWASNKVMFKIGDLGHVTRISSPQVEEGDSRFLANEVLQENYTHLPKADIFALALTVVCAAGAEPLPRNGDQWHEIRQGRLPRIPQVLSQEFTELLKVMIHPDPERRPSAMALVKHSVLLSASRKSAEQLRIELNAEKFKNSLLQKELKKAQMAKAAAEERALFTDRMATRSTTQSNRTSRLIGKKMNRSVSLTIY
In test [8] the target is G2/mitotic-specific cyclin-B1 (Homo sapiens, UniProt P14635). Put plainly: G2/M cell cycle arrest in HeLa, late-stage follow-up, mechanism study for Wee1 degradation inhibitor project, FACS, panel member Cyclin B Degradation (AID 2088).
Sequence of G2/mitotic-specific cyclin-B1 (P14635 whole entry): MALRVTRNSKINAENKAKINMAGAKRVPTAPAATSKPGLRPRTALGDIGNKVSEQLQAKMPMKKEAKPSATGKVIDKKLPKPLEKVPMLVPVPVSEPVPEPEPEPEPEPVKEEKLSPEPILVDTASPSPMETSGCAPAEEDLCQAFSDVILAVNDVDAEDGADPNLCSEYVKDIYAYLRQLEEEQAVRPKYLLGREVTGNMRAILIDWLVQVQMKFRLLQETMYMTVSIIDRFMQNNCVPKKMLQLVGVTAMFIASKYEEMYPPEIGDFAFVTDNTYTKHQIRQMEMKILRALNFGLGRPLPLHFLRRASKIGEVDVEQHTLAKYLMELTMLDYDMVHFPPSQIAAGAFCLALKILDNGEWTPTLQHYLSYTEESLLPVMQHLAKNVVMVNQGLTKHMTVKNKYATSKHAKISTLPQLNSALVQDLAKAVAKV
Test [9] addresses T2, Corticotropin-releasing factor receptor 2/Corticotropin-releasing factor-binding protein (Homo sapiens, UniProt P24387+Q13324).
T2 sequence (Q13324 whole entry): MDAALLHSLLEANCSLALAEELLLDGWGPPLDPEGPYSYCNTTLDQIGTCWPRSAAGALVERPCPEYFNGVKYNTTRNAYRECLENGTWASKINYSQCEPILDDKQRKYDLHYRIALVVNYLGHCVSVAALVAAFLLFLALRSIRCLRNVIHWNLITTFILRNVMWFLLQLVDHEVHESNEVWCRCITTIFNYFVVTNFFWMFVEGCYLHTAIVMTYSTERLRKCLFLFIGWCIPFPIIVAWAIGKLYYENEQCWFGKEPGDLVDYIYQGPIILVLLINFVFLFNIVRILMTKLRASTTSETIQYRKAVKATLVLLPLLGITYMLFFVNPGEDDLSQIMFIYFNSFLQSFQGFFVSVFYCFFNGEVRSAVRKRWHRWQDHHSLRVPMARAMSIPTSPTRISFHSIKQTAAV
T2 sequence (P24387 whole entry): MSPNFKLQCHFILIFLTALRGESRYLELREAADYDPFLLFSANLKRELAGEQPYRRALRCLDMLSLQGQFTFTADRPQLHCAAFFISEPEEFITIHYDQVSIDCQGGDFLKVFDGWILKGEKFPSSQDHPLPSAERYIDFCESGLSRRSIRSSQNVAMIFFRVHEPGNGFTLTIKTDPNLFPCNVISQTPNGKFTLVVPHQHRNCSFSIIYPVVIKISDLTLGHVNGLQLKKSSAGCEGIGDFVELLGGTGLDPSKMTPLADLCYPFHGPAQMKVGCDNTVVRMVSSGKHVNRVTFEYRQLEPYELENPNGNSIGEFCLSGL
The test can be described thus: Dose Response confirmation of uHTS hits for small molecule antagonists of the CRF-binding protein and CRF-R2 receptor complex. Conditions: read-out: IC50_Mean. It is filed as functional.

The target in test [10] is T2, Corticotropin-releasing factor receptor 2/Corticotropin-releasing factor-binding protein. The test can be described thus: activators of CRF receptor 2 with binding protein – uHTS hits, confirmation (AID 602473). It is filed as functional. Conditions: read-out: EC50_Mean.
Test [11] deals with Cyclin-dependent kinase 5/CDK5 activator 1 (Homo sapiens, UniProt Q00535). The test can be described thus: CDK5/p35 kinase inhibitors, dose response, biochemical, cherry-picked samples, set 2 (AID 504545).
Sequence of Cyclin-dependent kinase 5/CDK5 activator 1 (Q00535 whole entry): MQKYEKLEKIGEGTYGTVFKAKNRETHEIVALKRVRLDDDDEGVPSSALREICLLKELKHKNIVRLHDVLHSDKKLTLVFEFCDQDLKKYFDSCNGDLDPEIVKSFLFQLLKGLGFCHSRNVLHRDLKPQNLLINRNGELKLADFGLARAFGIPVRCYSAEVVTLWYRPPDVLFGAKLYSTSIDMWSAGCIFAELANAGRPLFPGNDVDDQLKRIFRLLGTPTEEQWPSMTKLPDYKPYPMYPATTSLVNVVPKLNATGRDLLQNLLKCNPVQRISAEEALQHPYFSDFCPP
Sequence of Cyclin-dependent kinase 5/CDK5 activator 1 (Q15078 whole entry, further chain): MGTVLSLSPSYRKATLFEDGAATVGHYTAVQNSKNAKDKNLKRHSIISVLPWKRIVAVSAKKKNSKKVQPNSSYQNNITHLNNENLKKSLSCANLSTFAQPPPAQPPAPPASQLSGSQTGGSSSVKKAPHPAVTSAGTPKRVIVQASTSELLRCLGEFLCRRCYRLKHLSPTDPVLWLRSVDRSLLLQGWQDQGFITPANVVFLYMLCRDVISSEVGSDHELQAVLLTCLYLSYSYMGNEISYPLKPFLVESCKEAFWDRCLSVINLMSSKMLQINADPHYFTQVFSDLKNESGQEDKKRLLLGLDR
Test [12] deals with Melanin-concentrating hormone receptor 1 (Homo sapiens, UniProt Q99705). The test can be described thus: Late-stage fluorescence-based counterscreen for antagonists of the G-protein coupled receptor 7 (GPR7): cell-based dose response assay to identify antagonists of the melanin-concentrating hormone receptor 1 (MCHR1). [Related pubchem assays (depositor defined):AID1861, AID1880, AID1952, AID2148, AID2251, AID2257, AID485339]. It is filed as functional.
Sequence of Melanin-concentrating hormone receptor 1 (Q99705 whole entry): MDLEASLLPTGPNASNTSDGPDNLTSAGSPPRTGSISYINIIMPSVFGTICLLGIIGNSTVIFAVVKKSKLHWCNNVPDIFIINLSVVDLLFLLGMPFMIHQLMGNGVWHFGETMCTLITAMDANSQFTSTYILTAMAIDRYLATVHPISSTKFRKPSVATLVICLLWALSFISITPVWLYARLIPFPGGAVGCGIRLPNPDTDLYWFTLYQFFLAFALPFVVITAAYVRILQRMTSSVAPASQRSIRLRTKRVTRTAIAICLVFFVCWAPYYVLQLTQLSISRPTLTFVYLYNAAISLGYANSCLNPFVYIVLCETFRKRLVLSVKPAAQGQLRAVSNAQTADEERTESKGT

Sequence of Tumor necrosis factor (P01375 whole entry): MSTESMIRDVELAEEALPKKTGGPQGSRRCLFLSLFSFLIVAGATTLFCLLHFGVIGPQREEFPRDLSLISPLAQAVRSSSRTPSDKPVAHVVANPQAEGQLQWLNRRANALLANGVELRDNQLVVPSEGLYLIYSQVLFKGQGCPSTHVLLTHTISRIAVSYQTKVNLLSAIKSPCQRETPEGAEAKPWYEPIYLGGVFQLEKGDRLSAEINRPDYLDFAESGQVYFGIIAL

Regarding `CN(CC(=O)Nc1nnc(S)s1)S(=O)(=O)c1cccc2cccnc12`, the IC50 in test [1] was 1.95 µM (active); in test [2] it was > 100 µM (inactive).
Regarding `Cc1cc(C(=O)NC2CCCc3c2cnn3-c2ccccc2F)n(Cc2ccc(F)cc2)n1` (configuration not stated), the IC50 in [3], in test [4], in test [5] and in [6] was > 20 µM (inactive) in each case.
Consider `COc1ccc(C(=O)Nc2cc(C)nn2-c2nc(C)cc(O)n2)cc1`, for which the EC50 in [7] and in test [8] was > 49.7 µM (inactive) in each case.
With `Nc1ccc2c(c1)C(=NO)c1ccccc1-2`, the IC50 in [9] is > 47.1 µM (inactive). For the same compound, the EC50 in [10] is > 53 µM (inactive). Besides, in test [11], the AC50 (commonly the midpoint of the concentration-response curve, whichever way the signal moves) was 39.9 µM (active).
Regarding `COC(=O)c1cnn(-c2ccc(C(C)C)cc2)c(=O)c1Oc1ccc(OC)cc1`, in test [12], the IC50 was 6.9 µM (active).
